Test results as given in patent US20260200925A1, “SMALL MOLECULE INHIBITORS OF KRAS MUTATED PROTEINS” (MERCK SHARP & DOHME LLC, priority 2021, published 2026).
Where a name gives a salt, the structure may show the parent alone.

Tests used:
[1] = molecular target: Recombinant KRAS-G12V (SEQ ID NO: 3) (Homo sapiens, UniProt P01116, G12V); assay: SOS-catalyzed guanine nucleotide exchange (GNE) assay, KRAS-G12V
Experimental: (§1) Specifically, the SOS-catalyzed nucleotide exchange assay utilizes a preformed time-resolved fluorescence resonance energy transfer (TR-FRET) complex containing a specific biotinylated RAS protein (KRAS-G12C/V/D, HRAS, NRAS; described above) with BODIPY-GDP, and Terbium-streptavidin. Test compounds are preincubated with this complex for 60 minutes.
(§2) To assemble the preformed TR-FRET complexes, each biotinylated RAS protein is diluted to 2 μM in an EDTA Buffer (20 mM HEPES, 50 mM sodium chloride, 10 mM EDTA, and 0.01% Tween) and incubated at room temperature for one hour. This mixture is then further diluted to 90 nM in an Assay Buffer (20 mM HEPES, 150 mM sodium chloride, 10 mM magnesium chloride, and 0.005% Tween) containing 15 nM of Terbium-Streptavidin (Invitrogen, catalog #PV3577) and 900 nM of BODIPY-GDP (Invitrogen, catalog #G22360) and incubated at room temperature for six hours. It should be noted that this preformed TR-FRET complex for each of the RAS proteins was made ahead of time, aliquoted and stored at −80° C. until the day of the experiment.
(§3) Once titrations are made, 10 nL of the diluted compounds is acoustically dispensed into a 384-well assay plate (Corning, catalog #3820) using an Echo 550 (Labcyte). Each well of the assay plate subsequently receives 3 μL of a specific 3× RAS preformed TR-FRET complex and 3 μL of Assay Buffer and is incubated at room temperature for 60 minutes (preincubation time). […] The final reaction in each well of 9 μL consists of 3 mM GTP, and the specific RAS and SOS proteins in the following concentrations: KRAS-G12C/SOS=3 nM/40 nM, KRAS-G12D/SOS=1 nM/40 nM, KRAS-G12V/SOS=1.25 nM/160 nM, HRAS/SOS=1.25 nM/40 nM, and NRAS/SOS=1.25 nM/40 nM.
(§4) The TR-FRET signal is measured on an Envision (PerkinElmer) plate reader: Excitation filter=340 nm; emission 1=495 nm; emission 2=520 nm; dichroic mirror=D400/D505; delay time=100 ms. The signal of each well is determined as the ratio of the emission at 520 nm to that at 495 nm. […] The apparent effect as a function of compound concentration is fit to a four-parameter logistic equation to calculate IC50 values using Spotfire software.

[2] = test system: NCI-H358 cells containing homozygous KRAS-G12C activating mutation (p-ERK); conditions: Homo sapiens, NCI-H358, 2 h, read-out: G12C H358 IC50 (nM)
Experimental: Procedure for Cellular Phospho-ERK Assay, G12C
NCI-H358 cells (ATCC® CRL-5807™), containing homozygous KRAS-G12C activating mutation, were cultured in T150 flask in growth medium (RPMI medium 1640-GlutaMAX™—I (ThermoFisher Scientific 61870) containing 10% fetal bovine serum (ThermoFisher Scientific 10091148)). The cells were harvested in growth medium after TrypLE (ThermoFisher scientific 12604021) digestion and were seeded in a 384-well collagen coated cell culture plate (Corning 356702) at a density of 15,000 cells/well, and incubated at 37° C., 5% CO2 overnight. […] RPMI medium 1640-GlutaMAX™—I was added to the intermediate plate and the contents of the intermediate plate were then transferred to the 384-well collagen coated cell culture plate, which was incubated at 37° C., 5% CO2 for 2 hours. After removal of medium from the collagen coated cell culture plate, cells were lysed in lysis buffer from Alpha SureFire® Ultra™ Multiplex p-ERK and total ERK assay kit (PerkinElmer MPSU-PTERK) containing Halt™ Protease and Phosphatase inhibitor cocktail (ThermoFisher Scientific 78446) at room temperature with constant shaking at 300 rpm for 30 minutes. The cell lysates were then transferred to an OptiPlate-384 plate (PerkinElmer 6005620), and the phosphorylation of ERK (p-ERK) and total ERK levels were detected by Alpha SureFire® Ultra™ Multiplex p-ERK kit and total ERK assay kit (PerkinElmer MPSU-PTERK) following the manufacturer's protocol. Assay plates were read on an EnVision Multimode Plate Reader (PerkinElmer), and the ratio of p-ERK vs. total ERK in each well was used as the final readout. Dose response curves were analyzed using a 4-parameter logistic model to calculate IC50 values using Spotfire software.

[3] = molecular target: G13D (Homo sapiens, UniProt P01116, G13D); assay: Guanine nucleotide exchange (GNE) assay, G13D; format: biochemical
Experimental: as §4

[4] = molecular target: Recombinant KRAS-G12D (SEQ ID NO: 2) (Homo sapiens, UniProt P01116, G12D); assay: SOS-catalyzed guanine nucleotide exchange (GNE) assay, KRAS-G12D
Experimental: as §1, §2, §3, §4

[5] = test system: AsPC-1 cells containing homozygous KRAS-G12D activating mutation (p-ERK); conditions: Homo sapiens, ASPC1, 2 h, read-out: KRAS G12D ASPC-1 IC50 (nM)
Experimental: Procedure for Cellular Phospho-ERK Assay, G12D
AsPC-1 cells (ATCC® CRL-1682™), containing homozygous KRAS-G12D activating mutation, were cultured in T150 flask in growth medium (RPMI medium 1640-GlutaMAX™—I (ThermoFisher Scientific 61870) containing 10% fetal bovine serum (ThermoFisher Scientific 10091148)). The cells were harvested in growth medium after TrypLE (ThermoFisher scientific 12604021) digestion and were seeded in a 384-well collagen coated cell culture plate (Corning 356702) at a density of 15,000 cells/well, and incubated at 37° C., 5% CO2 overnight. […] RPMI medium 1640-GlutaMAX™—I was added to the intermediate plate and the contents of the intermediate plate were then transferred to the 384-well collagen coated cell culture plate, which was incubated at 37° C., 5% CO2 for 2 hours. After removal of medium from the collagen coated cell culture plate, cells were lysed in lysis buffer from Alpha SureFire® Ultra™ Multiplex p-ERK and total ERK assay kit (PerkinElmer MPSU-PTERK) containing Halt™ Protease and Phosphatase inhibitor cocktail (ThermoFisher Scientific 78446) at room temperature with constant shaking at 300 rpm for 30 minutes. The cell lysates were then transferred to an OptiPlate-384 plate (PerkinElmer 6005620), and the phosphorylation of ERK (p-ERK) and total ERK levels were detected by Alpha SureFire® Ultra™ Multiplex p-ERK kit and total ERK assay kit (PerkinElmer MPSU-PTERK) following the manufacturer's protocol. Assay plates were read on a EnVision Multimode Plate Reader (PerkinElmer), and the ratio of p-ERK vs. total ERK in each well was used as the final readout. Dose response curves were analyzed using a 4-parameter logistic model to calculate IC50 values using Spotfire software.

Sequence of G13D (P01116 1-188 isoform P01116-2 G13D): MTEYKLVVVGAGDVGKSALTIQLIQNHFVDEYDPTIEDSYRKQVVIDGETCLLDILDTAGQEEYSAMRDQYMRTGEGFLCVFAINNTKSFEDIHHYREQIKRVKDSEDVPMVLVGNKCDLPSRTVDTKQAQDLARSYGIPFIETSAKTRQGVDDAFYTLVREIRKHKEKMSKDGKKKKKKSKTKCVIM
Sequence of Recombinant KRAS-G12V (SEQ ID NO: 3) (P01116 with tags, fused parts or gaps isoform P01116-2 G12V): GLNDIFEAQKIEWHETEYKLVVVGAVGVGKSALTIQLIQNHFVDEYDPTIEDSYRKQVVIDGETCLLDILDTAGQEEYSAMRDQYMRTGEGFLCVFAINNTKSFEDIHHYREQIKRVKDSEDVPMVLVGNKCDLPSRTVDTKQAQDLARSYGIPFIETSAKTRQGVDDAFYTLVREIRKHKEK
Sequence of Recombinant KRAS-G12D (SEQ ID NO: 2) (P01116 with tags, fused parts or gaps isoform P01116-2 G12D): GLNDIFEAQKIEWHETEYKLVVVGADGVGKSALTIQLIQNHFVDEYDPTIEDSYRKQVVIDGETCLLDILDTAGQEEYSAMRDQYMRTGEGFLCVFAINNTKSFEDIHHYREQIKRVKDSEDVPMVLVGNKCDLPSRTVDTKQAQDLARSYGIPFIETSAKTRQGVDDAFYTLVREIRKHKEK

SMILES | IC50 [1] [nM] | IC50 [2] [nM] | IC50 [3] [nM] | IC50 [4] [nM] | IC50 [5] [nM]
C#Cc1cccc2cc(O)cc(-c3ncc4c(N5CCC[C@@](C)(O)C5)nc(OCC56CCCN5CCC6)nc4c3F)c12 [Ex-22, (R)-1-(7-(8-ethyny1-3-hydroxynaphthalen-1-yl)-8-fluoro-2-((tetrahydro-1H-pyrrolizin-7a(5H)-yl)methoxy)pyrido[4,3-d]pyrimidin-4-yl)-3-methylpiperidin-3-ol] | 2 | 305 | 1 | 1 | 1160
C[C@@]1(O)COCCN(c2nc(OC[C@@]34CCCN3C[C@H](F)C4)nc3c(F)c(-c4cc(O)cc5cccc(Cl)c45)c(F)cc23)C1 [Ex-37, (6S)-4-(7-(8-chloro-3-hydroxynaphthalen-1-yl)-6,8-difluoro-2-(((2R,7aS)-2-fluorotetrahydro-1H-pyrrolizin-7a(5H)-yl)methoxy)quinazolin-4-yl)-6-methyl-1,4-oxazepan-6-ol] |  | 48 |  |  | 151
CN(C)C[C@@]1(COc2nc(N3CCC[C@@](C)(O)C3)c3cc(F)c(-c4cccc5ccc(F)c(Cl)c45)c(F)c3n2)CC1(F)F [Ex-14, (3R)-1-(7-(8-chloro-7-fluoronaphthalen-1-yl)-2-(((R)-1-((dimethylamino)methyl)-2,2-difluorocyclopropyl)methoxy)-6,8-difluoroquinazolin-4-yl)-3-methylpiperidin-3-ol] | 1230 |  | 5190 | 1190 | 
C#Cc1cccc2cccc(-c3c(F)cc4c(N5CCC[C@](C)(O)C5)nc(OC[C@@]56CCCN5C[C@H](F)C6)nc4c3F)c12 (single isomer, unassigned) [Ex-46] | 168 |  | 291 | 986 | 4690
C#Cc1cccc2cc(O)cc(-c3c(F)cc4c(N5CCC[C@@](C)(O)C5)nc(OCC5(CN(C)C)CC5)nc4c3F)c12 (single isomer, unassigned) [Ex-11] | 2 |  | 2 | 1 | 132
Nc1nc2c(-c3c(Cl)cc4c(N5CCCC(O)CC5)nc(OC[C@@]56CCCN5C[C@H](F)C6)nc4c3F)c(F)cc(F)c2o1 (stereo partly drawn) [Ex-25, 1-(7-(2-amino-5,7-difluorobenzo[d]oxazol-4-yl)-6-chloro-8-fluoro-2-(((2R,7aS)-2-fluorotetrahydro-1H-pyrrolizin-7a(5H)-yl)methoxy)quinazolin-4-yl)azepan-4-ol] |  | 611 |  |  | 1400
C#Cc1cccc2cc(O)cc(-c3c(F)cc4c(N5CCC[C@@](C)(O)C5)nc(OC[C@]5(CO)CC5(F)F)nc4c3F)c12 [Ex-44, (3R)-1-(2-(((R)-2,2-difluoro-1-(hydroxy-methyl)cyclopropyl)methoxy)-7-(8-ethynyl-3-hydroxynaphthalen-1-yl)-6,8-difluoroquinazolin-4-yl)-3-methylpiperidin-3-ol] |  | 59 |  |  | 142
Oc1cc(-c2c(F)cc3c(N4CCC[C@@H](O)C4)nc(OC[C@@]45CCCN4C[C@H](F)C5)nc3c2F)c2c(Cl)cccc2c1 [Ex-27, (3R)-1-(7-(8-chloro-3-hydroxynaphthalen-1-yl)-6,8-difluoro-2-(((2R,7aS)-2-fluorotetrahydro-1H-pyrrolizin-7a(5H)-yl)methoxy)quinazolin-4-yl)piperidin-3-ol] |  |  |  |  | 3840
C#Cc1cccc2cc(O)cc(-c3ncc4c(N5CCC[C@@](C)(O)C5)nc(OCC5(CN(C)C)CC5)nc4c3F)c12 [Ex-21, (R)-1-(2-((1-((dimethylamino)methyl)cyclopropyl)methoxy)-7-(8-ethynyl-3-hydroxynaphthalen-1-yl)-8-fluoropyrido[4,3-d]pyrimidin-4-yl)-3-methylpiperidin-3-ol] | 1 |  | 1 | 1 | 329
CC1CN(c2nc(OC[C@@]34CCCN3C[C@H](F)C4)nc3c(F)c(-c4cc(O)cc5cccc(Cl)c45)c(F)cc23)CC(C)(O)C1 (single isomer, unassigned) [Ex-33] | 143 |  | 86 | 163 | 
C#Cc1cccc2cc(O)cc(-c3cnc4c(N5CCC[C@@](C)(O)C5)nc(OCC5(CN(C)C)CC5)nc4c3)c12 [Ex-19, (R)-1-(2-((1-((dimethylamino)methyl)cyclopropyl)methoxy)-7-(8-ethynyl-3-hydroxynaphthalen-1-yl)pyrido[3,2-d]pyrimidine-4-yl)-3-methylpiperidin-3-ol] | 47 |  | 129 | 91 | 3340
CN(C)CC1(COc2nc(N3CCC[C@@](C)(O)C3)c3cnc(-c4cc(O)cc5cccc(Cl)c45)c(F)c3n2)CC1 [Ex-20, (R)-1-(7-(8-chloro-3-hydroxynaphthalen-1-yl)-2-((1-((dimethylamino)methyl)cyclopropyl)methoxy)-8-fluoropyrido[4,3-d]pyrimidin-4-yl)-3-methylpiperidin-3-ol] | 6 |  | 6 | 4 | 1180
C[C@@H]1C[C@@H](O)CN1c1nc(OC[C@@]23CCCN2C[C@H](F)C3)nc2c(F)c(-c3cc(O)cc4cccc(Cl)c34)c(F)cc12 [Ex-28, (3R,5R)-1-(7-(8-chloro-3-hydroxynaphthalen-1-yl)-6,8-difluoro-2-(((2R,7aS)-2-fluorotetrahydro-1H-pyrrolizin-7a(5H)-yl)methoxy)quinazolin-4-yl)-5-methylpyrrolidin-3-ol] |  | 2260 |  |  | 1220
Cc1cc2[nH]ncc2c(-c2c(F)cc3c(N4CCC[C@@](C)(O)C4)nc(OCC4(CN5CC[C@@H](F)C5)CC4)nc3c2F)c1C [Ex-39, (3R)-1-(7-(5,6-dimethy1-1H-indazol-4-yl)-6,8-difluoro-2-((1-(((R)-3-fluoropyrrolidin-1-yl)methyl)cyclopropyl)methoxy)quinazolin-4-yl)-3-methylpiperidin-3-ol] | 2290 |  | 2660 | 2710 | 
C[C@@]1(O)CCCN(c2nc(OC[C@]3(CO)CC3(F)F)nc3c(F)c(-c4cc(O)cc5cccc(Cl)c45)c(F)cc23)C1 [Ex-30, (3R)-1-(7-(8-chloro-3-hydroxynaphthalen-1-yl)-2-(((R)-2,2-difluoro-1-(hydroxymethyl)cyclo-propyl)methoxy)-6,8-difluoroquinazolin-4-yl)-3-methylpiperidin-3-ol] |  | 512 |  |  | 3150
C[C@@]1(O)CCCN(c2nc(OCC3(CN4CCC(F)CC4)CC3)nc3c(F)c(-c4cc(O)cc5cccc(Cl)c45)c(F)cc23)C1 [Ex-6, (3R)-1-(7-(8-chloro-3-hydroxynaphthalen-1-yl)-6,8-difluoro-2-((1-((4-fluoropiperidin-1-yl)methyl)cyclopropyl)methoxy)quin-azolin-4-yl)-3-methylpiperidin-3-ol] |  |  |  |  | 3050
C#Cc1cccc2cc(O)cc(-c3ccc4c(N5CCC[C@@](C)(O)C5)nc(OCC5(CN(C)C)CC5)nc4c3F)c12 [Ex-16, (R)-1-(2-((1-((dimethylamino)methyl)cyclopropyl)methoxy)-7-(8-ethynyl-3-hydroxynaphthalen-1-yl)-8-fluoroquinazolin-4-yl)-3-methylpiperidin-3-ol] |  | 123 |  |  | 352
Oc1cc(-c2c(F)cc3c(N4CCC[C@H](O)CC4)nc(OC[C@@]45CCCN4C[C@H](F)C5)nc3c2F)c2c(Cl)cccc2c1 [Ex-35, (4S)-1-(7-(8-chloro-3-hydroxynaphthalen-1-yl)-6,8-difluoro-2-(((2R,7aS)-2-fluorotetrahydro-1H-pyrrolizin-7a(5H)-yl)methoxy)quinazolin-4-yl)azepan-4-ol] |  | 1820 |  |  | 4840
C#Cc1cccc2cc(O)cc(-c3c(F)cc4c(N5CCC[C@@](C)(O)C5)nc(OCC5(CN6CC[C@@H](F)C6)CC5)nc4c3F)c12 [Ex-12, (3R)-1-(7-(8-ethyny1-3-hydroxynaphthalen-1-yl)-6,8-difluoro-2-((1-(((R)-3-fluoropyrrolidin-1-yl)methyl)cyclopropyl)meth-oxy)quinazolin-4-yl)-3-methylpiperidin-3-ol] |  | 41 |  |  | 86
C#Cc1cccc2cc(O)cc(-c3c(F)cc4c(N5CCC[C@@](C)(O)C5)nc(OCC5(CN6CCC(OC)CC6)CC5)nc4c3F)c12 [Ex-7, (3R)-1-(7-(8-ethynyl-3-hydroxvnaphthalen-1-yl)-6,8-difluoro-2-((1-((4-methoxypiperidin-1-yl)methyl)cyclopropyl)methoxy)quinazolin-4-yl)-3-methylpiperidin-3-ol] |  |  |  |  | 95
CN1CCC[C@H]1COc1nc(N2CCC[C@@](C)(O)C2)c2cc(F)c(-c3cc(O)cc4cccc(Cl)c34)c(F)c2n1 [Ex-49, (3R)-1-(7-(8-chloro-3-hydroxynaphthalen-1-yl)-6,8-difluoro-2-(((S)-1-methylpyrrolidin-2-yl)methoxy)quinazolin-4-yl)-3-methylpiperidin-3-ol trifluoracetate salt] |  | 427 |  |  | 690
COC1CCN(CC2(COc3nc(N4CCC[C@@](C)(O)C4)c4cc(F)c(-c5cc(O)cc6cccc(Cl)c56)c(F)c4n3)CC2)CC1 [Ex-5, (3R)-1-(7-(8-chloro-3-hydroxnagphthalen-1-yl)-6,8-difluoro-2-((1-((4-methoxypiperidin-1-yl)methyl)cyclopropyl)methoxy)quinazolin-4-yl)-3-methylpiperidin-3-ol] |  |  |  |  | 1150
